# Assay results taken from patent publication US8841452B1, “Process for recovery of nalmefene hydrochloride” (H. Lundbeck A/S, priority 2011, dated 2014).
# Structures can show the parent of a compound that is named as a salt.
# Key:
# [1] = compared to naltrexone; cited from earlier work
# [2] = compared to naltrexone; cited from earlier work; remark: listed apart in the source
# [3] = hydrochloride salt, doses of 10 to 40 mg taken when the patient experiences a craving for alcohol; cited from earlier work
# [4] = compared to naltrexone; cited from earlier work; remark: listed apart in the source
# [5] = crystalline form; improves API stability under storage and formulation conditions; cited from earlier work
# [6] = solubility in aqueous medium; format: physicochemical; conditions: compared to naltrexone itself
# Source text: Since only compounds containing a carbonyl moiety can react with the bisulfite anion nalmefene cannot undergo to such reaction. The bisulfite adduct of naltrexone is more soluble than naltrexone itself thus permitting the removal of this impurity.
smiles,measurement,setting,value
"C=C1CC[C@@]2(O)[C@H]3Cc4ccc(O)c5c4[C@@]2(CCN3CC2CC2)[C@H]1O5 [nalmefene, 17-(cyclopropylmethyl)-4,5-alpha-epoxy-6-methylenemorphinan-3,14-diol hydrochloride]",oral bioavailability,[1],higher
same,half-life,[2],longer
same,effect in the management of alcohol dependency,[3],good effect
same,dose-dependent liver toxicity,[4],absence
C=C1CC[C@@]2(O)[C@H]3Cc4ccc(O)c5c4[C@@]2(CCN3CC2CC2)[C@H]1O5 [nalmefene hydrochloride dihydrate],hygroscopic properties,[5],non-hygroscopic
O=S(=O)(O)C1(O)CC[C@@]2(O)[C@H]3Cc4ccc(O)c5c4[C@@]2(CCN3CC2CC2)[C@H]1O5 (stereo partly drawn) [bisulfite adduct of naltrexone],solubility,[6],more soluble
